From US20240174744A1, “METHODS OF TREATMENT USING PROTEIN BINDERS TO IRHOM2 EPITOPES” (SCIRHOM GMBH, priority 2021, published 2024)

System: PMA-induced release of HB-EGF from PBMCs from patients suffering from rheumatoid arthritis
Assay: ELISA-based HB-EGF release assay, PBMCs from RA-patients
Assay type: cell-based
Conditions: Homo sapiens; chimeric antibodies (CHO) 1 μg/ml; Batimastat 10 μM; PMA 25 ng/ml, 6 hours
Method: In contrast to Example 35, where the inhibitory effects of the antibodies of the present disclosure on PMA-induced release of endogenous HB-EGF from primary human material obtained from healthy donors using peripheral blood mononuclear cells (PBMCs) were tested, this analysis was conducted to analyze the inhibitory effects of the antibodies of the present disclosure on PMA-induced release of endogenous HB-EGF from primary human material obtained from patients suffering from rheumatoid arthritis (RA-patients).
In brief, on day 1, Nunc black MaxiSorp® 96-well plates (Thermo Fisher Scientific, USA) were coated overnight with 100 μl per well of rat anti-human HB-EGF capture antibody (provided as part of the DuoSet ELISA kit) at 2 μg/ml TBS at 4° C. On day 2, the capture antibody solution was removed and MaxiSorp® plates were blocked with 300 μl per well of TBS, 1% BSA at room temperature for 3 hours. […]
To avoid drying-up, 30 μl TBS were added to each well of the MaxiSorp® plates immediately, followed by the transfer of 70 μl cell-free supernatant per sample. […] Using an infinite M1000 (Tecan Group, Switzerland) microplate reader, the fluorescence of each well was collected at an excitation wavelength of 435 nm and an emission wavelength of 555 nm.

Structure (SMILES): CNC(=O)[C@H](Cc1ccccc1)NC(=O)[C@H](CC(C)C)[C@H](CSc1cccs1)C(=O)NO [Batimastat]
- inhibition at 10 µM: 102%
